Laboratory results as given in patent US7659071B2, “Methods and compositions relating to HPV-associated pre-cancerous and cancerous growths, including CIN” (Board of Regents, the University of Texas System, priority 2001, dated 2010).
“And” between values parts separate entries of the source, which are not always exact repeats. Identical values can stand only once.

Legend:
PBMC [1] = experiment: T-cell proliferation assay ([3H]thymidine incorporation, stimulation index); type: cell-based, human
Protocol: The proliferative responses of PBMCs from different samples can be determined by the standard ^3[H]thymidine incorporation assay as described in published articles (Nehete, 1996; Nehete, 1995). The significance of T-cell proliferative responses to the individual E6 and E7 peptides (in terms of stimulation index [SI]) can be calculated as the fold increase of ^3[H]thymidine incorporation by cells exposed to the peptide over that by the control to which no peptide was added. An SI value of at least 2.0, including at least about 2.1, 2.2, 2.3, 2.4, 2.5, 2.6, 2.7, 2.8, 2.9, 3.0, 3.1, 3.2, 3.3, 3.4, 3.5, 3.6, 3.7, 3.8, 3.9, 4.0 or more, which are considered positive responses. Generally, an SI value is calculated by measuring the amount of radioactivity (cpm) in media from cells incubated with the peptide(s) and dividing by the amount of radioactivity in media from cells not incubated with peptide(s) (media alone).
Heparinized blood was collected from the study participants by venipuncture. PBMCs were isolated by centrifugation on a Ficoll-Hypaque density gradient ([…]; Sigma Chemical Co., St. Louis, Mo.). The proliferative responses of PBMC from different individuals after stimulation with PHA, c-mos peptide, or individual E6 and E7 peptides (Table 4) were determined using the [^3H]thymidine incorporation assay as previously described Nehete et al., 1996). Briefly, each sample was seeded in triplicate in 96-well microtiter plates and incubated for 7 days at 37° C. in a humidified 5% CO2 atmosphere. During the final 16-18 h, 1 μCi of ^3[H]thymidine (6.7 Ci/mmol; ICN Biomedicals, Inc., Costa Mesa, Calif.) was added. The cells were harvested onto filter strips to estimate ^3[H]thymidine incorporation. The specific radioactivity of cells treated with various additions was calculated in each case by subtracting the counts per minute (cpm) values obtained with cells cultured in medium alone. […] The significance of T-cell proliferative responses to the individual E6 and E7 peptides (in terms of stimulation index [SI]) was calculated as the fold increase of [^3H]thymidine incorporation by cells exposed to the peptide over that by the control to which no peptide was added. An SI value ≧3.0, which was considered a positive response, was used for all statistical analyses to determine the significance of proliferative responses and the association with disease-free or disease-recurrence status.

PBMC [2] = experiment: Cytokine analysis of PBMC culture supernatants (Cytoscreen immunoassay kits); type: cell-based, human; details: 48 h; for IL-4 production, number of patients positive/number tested: positive = above kit sensitivity 2.0 pg/ml; for IL-10 production, number of patients positive/number tested: positive = above kit sensitivity 5.0 pg/ml; for EL-12 production, number of patients positive/number tested: positive = above kit sensitivity IL-12 = 1.0 pg/ml; for IFN-γ production, number of patients positive/number tested: positive = above kit sensitivity 4.0 pg/ml; for EL-2 production, number of patients positive/number tested: positive = above kit sensitivity IL-2 = 8.7 pg/ml
Protocol: Cryopreserved PBMC were used for these assays. The PBMC (1×10^5) were incubated with various HPV peptides in RPMI-1640 medium (containing 10% fetal calf serum) in triplicate wells of 96-well round-bottom plates for 48 h at 37° C. Supernatants (100 μl) were removed from each well after centrifugation and stored frozen at −70° C. in another 96-well plate. The plates were then thawed and the supernatants assayed for various cytokines (IFN-γ, IL-2, IL-4, IL-10, and IL-12) using the Cytoscreen immunoassay kits (Biosource International, Camarillo, Calif.) according to the manufacturer's instructions.

Sequence	level of proliferative responses compared with the other peptides (PBMC [1])	Proliferative Response No (SI < 3.0) to specific peptide, number (%) of women (PBMC [1]; Group 3 (disease-free), n = 22)	Proliferative Response No (SI < 3.0) to specific peptide, number (%) of women (PBMC [1]; Group 4 (recurrence), n = 10)	IL-4 production, number of patients positive/number tested (PBMC [2]; Group 3 (n = 8))	IL-10 production, number of patients positive/number tested (PBMC [2]; Group 3 (n = 8))	EL-12 production, number of patients positive/number tested (PBMC [2]; Group 3 (n = 8))	IL-4 production, number of patients positive/number tested (PBMC [2]; Group 4 (n = 6))	IFN-γ production, number of patients positive/number tested (PBMC [2]; Group 4 (n = 6))	IL-10 production, number of patients positive/number tested (PBMC [2]; Group 4 (n = 6))	EL-2 production, number of patients positive/number tested (PBMC [2]; Group 4 (n = 6))	EL-12 production, number of patients positive/number tested (PBMC [2]; Group 4 (n = 6))	stimulation index (SI), proliferative response (PBMC [1]; women in the four study groups)
QAEPDRAHYNIVTFCCKCD (listed as Human papillomavirus) [Q19D, E7 peptide from HPV-16, aa 44-62]	higher levels of proliferative responses	9 (41%)	10 (100%)	none and 0/8	3 and 3/8	6 of 8 and 6/8	1 of the 6 and 1/6	0/6	6 of 6 and 6/6	0/6	1/6	
QLLRREVYDFAFRDL (listed as Human papillomavirus) [Q15L, E6 peptide from HPV-16, aa 43-57]	higher levels of proliferative responses	11 (50%)	10 (100%)	none and 0/8	3 and 3/8	3 of 8 and 3/8	1 of the 6 and 1/6	0/6	5 of 6 and 5/6	0/6	0/6	
RAHYNIVTF (listed as Human papillomavirus) [R9F, E7 peptide from HPV-16, aa 49-57]	higher levels of proliferative responses	12 (54%)										
STRTPEDSNSLGT (Murine) [c-mos peptide, peptide from the c-mos protooncogene, aa 158-170, used as a negative control, reference compound]												< 2.0
VYDFAFRDLC (listed as Human papillomavirus) [V10C, E6 peptide from HPV-16, aa 49-58]	higher levels of proliferative responses	11 (50%)	10 (100%)									
